Measured values from patent US20260287579A1, “METHOD FOR NON-INVASIVE HYPOXIA DETECTION” (BioVentures, LLC, priority 2023, published 2026).

Legend:
[1] = system: 4T1 murine breast cancer cells; assay: Bead-assisted flow cytometry for CD81+/Pimo+ vesicles from hypoxic or oxic cell cultures; type: cell-based; conditions: 100 μM pimonidazole, 24 hours, 0.5% oxygen vs regular air
Protocol: Isolating exosome from cell culture and Flow Cytometry analysis of isolated exosomes utilizing bead-assisted assay (FIGS. 10A-10B): 4T1 murine breast cancer cells were cultured in DMEM medium containing 10% Fetal Bovine Serum (FBS) at 37° C. in a humidified incubator with 5% CO2 and sub-cultured twice a week. For isolation of exosomes from 4T1 cultures, 1 million cells were plated in 10 cm plates and allowed to adhere overnight in the incubator. Cells were then washed with PBS, and the medium was changed to a medium containing 5% exosome-depleted FBS. Plates were grouped into four sets of five plates each. 100 μM pimonidazole was added to two sets, half of plates were incubated in a regular air incubator, and the other half in an incubator containing 0.5% Oxygen. After 24 hours, the medium was collected and subjected to sequential centrifugation at 1200, 3000, 10000, and 35000 rpm for 5, 15, 45 minutes, and 4 hours respectively. The final pellet was washed with PBS and centrifuged at 35000 rpm for 2 hours before being resuspended in 100 μl of PBS. The exosome amount was estimated using a BCA protein assay and the exosomes size was confirmed using a Nanoparticle Tracking Analyzer (NTA Instrument). […] Following the manufacture protocols, compensation beads were used to optimize fluorescence compensation settings and correct for spectral overlap between fluorophores. […]

[2] = system: exosomes isolated from hypoxic cells; assay: Fluorescent plate reader detection of pimonidazole adducts in isolated exosomes with FITC anti-pimonidazole antibody; type: cell-based; conditions: FITC-labeled anti-pimonidazole antibody, plate reader 485/528 nm
Description: FIGS. 10A-10B are charts showing results from a flow cytometry-based bead assay designed to allow conventional flow cytometers to assess the presence of various markers on exosome sized particles. This is accomplished by using beads of known size which are bound by exosomes if they have the marker (antibody target) in question. It is clear that exosomes derived from hypoxic cells have an augmented amount of pimonidazole adducts present. The inventors also tested for the general immunoreactivity of hypoxic-cell derived exosomes using a standard plate reader and a commercially available fluorescently conjugated anti-pimonidazole antibody. Briefly, isolated exosomes from cell culture medium from mouse serum samples were, suspended in 1% bovine serum albumin, and incubated with a fluorescently tagged anti-pimonidazole antibody. After a period of 2 hours or overnight, the exosomes were washed twice, resuspended in PBS and the fluorescent signal was determined using a Cytation 5 multi-mode plate reader.
Labeling exosomes with FITC-conjugated anti-pimonidazole antibody and quantifying the labeled exosomes'(FIG. 11): 10-40 μg of exosomes were utilized for antibody labeling in a 100 μl total volume containing 1% BSA as a blocking reagent. […] Fluorescence readings were obtained using a Cytation 5 plate reader at excitation/emission wavelengths of 485/528 nm (+/−20 nm).

## O=[N+]([O-])c1nccn1CC(O)CN1CCCCC1 (centres unmarked) [pimonidazole]
[1]
  enhancement in percent of vesicles labeled in hypoxic vs oxic conditions: 4 fold
[2]
  increase in fluorescence signal, exosomes from hypoxic cells vs cells grown in normal oxygen: ~2.5 fold
